For orientation: MIC means the lowest concentration found to suppress growth. By IC50 is commonly meant the concentration that gives 50% inhibition. High values mean weaker potency, low ones greater potency.

Among the data in paper PMC9915011, “Polymyxin B Conjugates with Bio-Inspired Synthetic Polymers of Different Nature” (International Journal of Molecular Sciences, 2023) are antimicrobial activity, MIC and IC50 values, retold here.

Test [1] deals with P. aeruginosa (ATCC 27853). In words: MIC by microdilution in Müller–Hinton broth. It counts as cell-based, Pseudomonas aeruginosa. The note with it: 18 h, OD 630 nm, n = 9. The text has this:
P. aeruginosa (ATCC 27853) from Museum of Microbiological Cultures of State Research Institute of Highly Pure Biopreparations FMBA (St. Petersburg, Russia) and Müller–Hinton Broth (HiMedia, Mumbai, India) were used to study the antibacterial effect of PMX B and its conjugates. HEK 293T cells were purchased from the cell culture collection of the Institute of Cytology of Russian Academy of Sciences (St. Petersburg, Russia).
The minimum inhibitory concentration (MIC) of polymyxin B in the conjugates was determined by the microdilution method in Müller–Hinton broth. Before the samples were tested against P. Aeruginosa, they were checked for microbiological purity to exclude possible contamination. In all cases, the absence of microbial growth on Luria–Bertani agar was detected. […] The plate was incubated for 18 h at 37 °C and then the optical density in the wells was measured at 630 nm using a microplate reader (ELx808™ Absorbance Microplate Reader, BioTek-Agilent, Santa Clara, CA, USA). Relative bacterial growth (%) was calculated from the data of OD measured for samples and control according to the equation: (2) Relative bactearial growth=OD630 sample at Cx−OD630 blank/OD630 positive control−OD630 blank×100% where Cx is a certain concentration of the sample. […]
(In general: Broth dilution looks for growth in wells or tubes with falling amounts of substance.)

The test system of another test is S. aureus. Particulars: cited from earlier work. An excerpt: A series of conjugates of loracarbef (cephalosporins) and ciprofloxacin (fluroquinolones) with sideromycins (siderophores) was synthesized and tested against a panel of ESKAPEE bacteria (Enterococcus faecium, S. aureus, Klebsiella pneumoniae, A. baumannii, P. aeruginosa, Enterobacter aerogenes, E. coli).

Test [2] has as its system Acinetobacter baumannii (Ab ATCC 19606). The note with it: cited from earlier work.
A further test concerns P. aeruginosa. Particulars: free colistin; cited from earlier work. On the procedure: According to the published works, many factors affect the MIC for conjugates linked with amide bonds. For example, Dubashynskaya et al. observed the dependence of MIC on the degree of substitution (DS). In particular, when the DS was 8%, the MIC against P. aeruginosa for hyaluronan–colistin conjugates was 1 µg/mL, the same as for free colistin. At the same time, a decrease in DS to 5 and 3% was accompanied with the MIC increase to 4 and more than 8 µg/mL, respectively.

The test system of the next test is HEK 293T cells. Nature of the test: MTT cytotoxicity in HEK 293T cells, 48 h. The class given is cell-based, human. The note with it: free polymers and free PMX B, tested 4 to 1000 µg/mL, mean ± SD, n = 4.

In brackets after ≈: the same amount, converted by molar mass.

Protocol for HEK 293T cells: The cell viability was determined after 48 h using the MTT assay (Figure 6).
HEK 293T cells were cultivated in DMEM/F12 medium with 10% FCS, 2 mM glutamine, and 1% gentamicin (Sigma-Aldrich, Darmstadt, Germany). In 96-well plates, 3.5 × 10^3 cells in 100 µL were seeded per well and left for adhesion at 37 °C for 24 in a humidified 5% CO2 atmosphere. After that, the medium in the wells was replaced with 200 µL of solution containing the test samples at the specified concentrations (n = 4) and left for incubation under the same conditions for 48 h. Then, the medium was removed and 100 µL of MTT reagent solution (5 mg/mL stock solution) was added to each well. The plates were incubated in the CO2 incubator for 3 h at 37 °C. Finally, the solution in the well was replaced with 50 µL of DMSO to dissolve formazan crystals and the optical density in each well was measured at 570 nm using fluorescent plate reader (Fluoroscan Ascent, Thermo Fisher Scientific Inc., Waltham, MA, USA). The wavelength of 690 nm was used to measure the background absorbance. The data obtained were normalized as a percentage of the control. Free polymers and PMX B were tested at concentrations ranging from 4 to 1000 µg/mL.

Regarding `CC(=O)N(O)CCCCCNC(=O)CCC(=O)N(O)CCCCCNC(=O)CCC(=O)N(O)CCCCCN` [DFOA, deferoxamine], in test [1] (P. aeruginosa, concentration range of 0.25–64 μg/mL), the antimicrobial activity entry was “neither polymers nor DFOA exhibited antimicrobial activity”.

`N[C@@H](C(=O)N[C@@H]1C(=O)N2C(C(=O)O)=C(Cl)CC[C@H]12)c1ccccc1` [loracarbef]: the MIC in the test on S. aureus is given as 1 µM (≈ 0.35 µg/mL). For colistin, the MIC (in test [2]; with P. aeruginosa) was 1 µg/mL in each case. Regarding polymyxin B [PMX B], in test [1] (P. aeruginosa ATCC 27853, microdilution, Müller–Hinton broth, 1 × 10^7 CFU/mL, 37 °C, MIC of polymyxin B in the conjugates), the MIC came out at 4 µg/mL. The compound also had an IC50 with HEK 293T cells of 130 ± 14 µg/mL.
